Assay results reported in PMC4269550, “Lead Optimization of a Pyrazole Sulfonamide Series of Trypanosoma bruceiN-Myristoyltransferase Inhibitors: Identification and Evaluation of CNS Penetrant Compounds as Potential Treatments for Stage 2 Human African Trypanosomiasis” (Journal of Medicinal Chemistry, 2014).
Like-named read-outs stand apart in the source and are kept apart here.

Assays:
in vitro = type: cell-based, human; conditions: human
[1] = Intrinsic clearance (Cli), mouse liver microsomes; type: in vitro ADME; conditions: for Cli (mouse): mouse liver microsomes; for Cli: mouse microsomes
[2] = test system: MRC5, human lung fibroblast cells; test: in vitro; type: cell-based
[3] = test system: T. b. brucei, BSF427, VSG118; test: Cell viability assay, trypanosome; type: cell-based

SMILES	Cli (mouse) [1] [mL min^–1 g^–1]	further results
Cc1nn(C)c(C)c1NS(=O)(=O)c1c(Cl)cc(Br)cc1Cl [compound 7, 4-bromo-2,6-dichloro-N-(1,3,5-trimethyl-1H-pyrazol-4-yl)-benzenesulfonamide]	14	EC50 at 69 h (in vitro): > 50 µM
Cc1nn(C)c(C)c1NS(=O)(=O)c1c(Cl)cc(C#CCN2CCN(C)CC2)cc1Cl [compound 13]		EC50 at 69 h (in vitro; MRC-5 EC50): > 50 µM
Cc1nn(C)c(C)c1NS(=O)(=O)c1c(Cl)cc(CCCN2CCN(C)CC2)cc1Cl [compound 14]	1.7	Cli [1]: 1.7 mL/min/g
Cc1nn(C)c(C)c1NS(=O)(=O)c1ccc(CCCN2CCN(C)CC2)cc1 [compound 15]		EC50 at 69 h (in vitro; MRC-5 EC50): > 50 µM
Cc1nn(C)c(C)c1NS(=O)(=O)c1c(Cl)cc(CCCC2CCN(C)CC2)cc1Cl [compound 16]	4.3	Cli [1]: 4.3 mL/min/g
Cc1nn(C)c(C)c1NS(=O)(=O)c1ccc(CCCC2CCNCC2)cc1 [compound 19]		EC50 at 69 h (in vitro; MRC-5 EC50): > 50 µM
Cc1nn(C)c(C)c1N(C)[S+](=O)([O-])c1c(Cl)cc(-c2ccnc(N3CCNCC3)c2)cc1Cl [compound 29]	17	
Cc1nn(C)c(C)c1N(C)[S+](=O)([O-])c1ccc(-c2ccnc(N3CCNCC3)c2)cc1 [compound 30]	1.3	
Cc1nn(C)c(C)c1NS(=O)(=O)c1ccc(-c2cccc(CN3CCN(C)CC3)c2)cc1 [compound 31]	1.2	
Cc1nn(C)c(C)c1N(C)S(=O)(=O)c1ccc(-c2cccc(CN3CCN(C)CC3)c2)cc1 [compound 32]	9.7	
Cc1nn(C)c(C)c1N(C)S(=O)(=O)c1c(Cl)cc(CCCCCn2ccnc2)cc1Cl [compound 35]	2.0	
Cc1nn(C)c(C)c1N(C)[S+](=O)([O-])c1c(Cl)cc(CCCCCCn2ccnc2)cc1Cl [compound 36]	3.0	EC50 (in vitro; MRC-5 EC50): 7.8 µM
Cc1nn(C)c(C)c1N(C)S(=O)(=O)c1ccc(CCCC2CCN(C)CC2)cc1 [compound 38]	3.7	EC50 (in vitro; read-out: MRC-5 EC50): 42 µM
Cc1nn(C)c(C)c1N(CC(F)F)S(=O)(=O)c1c(Cl)cc(CCCC2CCN(C)CC2)cc1Cl [compound 41]	2.2	Cli [1]: 2.2 mL/min/g
Cc1nn(C)c(C)c1N(C(F)F)[S+](=O)([O-])c1c(Cl)cc(CCCC2CCNCC2)cc1Cl [compound 43]	0.8	
Cc1nn(C)c(C)c1N(C(F)F)[S+](=O)([O-])c1c(Cl)cc(CCCN2CCN(C)CC2)cc1Cl [compound 44]	4.2	
Cc1nn(C)c(C)c1N(C(F)F)[S+](=O)([O-])c1c(Cl)cc(CCCCC2CCNCC2)cc1Cl [compound 45]	1.0	
Cc1nn(C)c(C)c1N(C(F)F)[S+](=O)([O-])c1c(Cl)cc(CCCOC2CCN(C)CC2)cc1Cl [compound 47]	3.7	
Cc1nn(C)c(C)c1N(C(F)F)S(=O)(=O)c1c(Cl)cc(CCCCCCN(C)C)cc1Cl [compound 48]	3.7	
Cc1nn(C)c(C)c1N(C(F)F)S(=O)(=O)c1c(Cl)cc(CCCOC[C@@H]2CCCN2C)cc1Cl [compound 49]	8.7	
Cc1nn(C)c(C)c1N(C(F)F)S(=O)(=O)c1c(Cl)cc(CCCOC[C@@H]2CCCCN2C)cc1Cl [compound 50]	9.8	
Cc1nn(C)c(C)c1N(C(F)F)S(=O)(=O)c1c(Cl)cc(CCCOC[C@H]2CCCCN2C)cc1Cl [compound 52]	14.2	
Cc1nn(C)c(C)c1NS(=O)(=O)c1ccc(-c2ccnc(N3CCNCC3)c2)cc1Cl [compound 54]		EC50 [2]: 0.25 µM
Cc1cc(-c2ccnc(N3CCNCC3)c2)ccc1S(=O)(=O)Nc1c(C)nn(C)c1C [compound 57]		EC50 [3]: 0.004 µM; EC50 [2]: 0.53 µM
